# PMC7293031 (Nucleic Acids Research, 2020)
# Key:
# PvrA [1] = target: T1, PvrA (Pseudomonas aeruginosa, UniProt Q9HZP1, R136A); test: ITC; assay type: binding
# T1 sequence (Q9HZP1 1-212 R136A): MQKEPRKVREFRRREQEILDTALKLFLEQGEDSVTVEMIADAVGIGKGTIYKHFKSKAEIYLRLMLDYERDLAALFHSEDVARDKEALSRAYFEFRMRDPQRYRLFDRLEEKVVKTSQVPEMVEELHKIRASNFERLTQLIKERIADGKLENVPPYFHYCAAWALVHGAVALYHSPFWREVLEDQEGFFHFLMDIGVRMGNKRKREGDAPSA
# PvrA [2] = target: T2, PvrA (Pseudomonas aeruginosa, UniProt Q9HZP1); test: ITC at […]°C; assay type: binding
# T2 sequence (Q9HZP1 1-212): T1 sequence (Q9HZP1 1-212 R136A)
structure (smiles),measurement,setting,value
CCCCCCCCCCCCCCCC(=O)SCCNC(=O)CCNC(=O)[C@H](O)C(C)(C)COP(=O)(O)OP(=O)(O)OC[C@H]1O[C@@H](n2cnc3c(N)ncnc32)[C@H](O)[C@@H]1OP(=O)(O)O [palmitoyl-coenzyme A],Kd,PvrA [1],262 µM
same,Kd,PvrA [2],31 µM
